From patent publication US9821072B2, “Activated neurotensin molecules and the uses thereof” (priority 2014, dated 2017)

How the values were obtained:
[1] = system: FVB/N mice with KA-induced status epilepticus; test: Kainic acid-induced status epilepticus model (body temperature, seizures, neurodegeneration, neuroinflammation, mossy fiber sprouting); format: in vivo, mouse; conditions: 30 min after SE onset; first of two values, presumably 2 mg/kg eq. NT
[2] = In vitro blood stability in freshly collected mouse blood (LC-MS/MS); format: in vitro ADME, Swiss (CD-1) mouse; conditions: whole blood, 2 μM, 37° C.
[3] = system: blood-retina barrier (BRB), eye; design: species or system C57Bl/6 mice; conditions: mouse, in vivo
Experimental: (§1) Transport kinetics at the BBB and blood-retina barrier (BRB) of the conjugates of the invention was assessed using an in situ brain perfusion technique in adult male C57Bl/6 mice. Radiolabeled activated NT compounds were obtained either by coupling [3H]Tyr3-NT with the AG or by coupling a tritiated AG to NT molecules. NT was radiolabeled by catalytic dehalogenation of iodoTyr3-NT using tritium gas while AG was radiolabeled by coupling a tritiated propionyl succinimide ester to its N-terminus. The specific radioactivity (SRA) was typically in the range of 50 Ci/mmol. The total quantity of radioactivity prepared for each synthesis was generally between 100 and 1000 μCi.
(§2) The in situ brain perfusion technique enables total control of the composition of the artificial perfusate in order to maintain the cells and vascularization of the brain under normal physiological and anatomical conditions within the animal, without the disrupting factor of systemic distribution. […]
(§3) In situ brain perfusion of the radiolabeled compounds of the invention was performed during 120 s with a perfusate flow rate of 2 mL/min. The initial transport was expressed as the transfer coefficient Kin (relationship between distribution volume of the test compound, corrected for the vascular volume, and cerebral perfusion time).

BBB (brain) = system: BBB (brain); design: species or system C57Bl/6 mice; conditions: mouse, in vivo
Experimental: as §1, §2, §3

mice = test: Writhing test (acetic acid, acute visceral pain) in mice; format: in vivo, mouse; conditions: 30 min before acetic acid i.p.
Experimental: In order to evaluate the antinociceptive potential of activated NT drugs, compound XIV was tested in an experimental pain model in mice. The writhing test was used as a model of acute visceral pain to assess the effect of compound XIV after intravenous administration. Given that the time to maximal decrease in body temperature in mice receiving compound XIV was around 45 min post-injection, we assumed similar pharmacodynamic kinetics in this pain model. Mice first received intravenous (bolus) injection of compound XIV at increasing dose levels, followed 30 min thereafter by intraperitoneal injection of acetic acid 0.7% (10 mL/kg). In control mice, intraperitoneal injection of acetic acid produces characteristic and quantifiable abdominal stretches (elongation of the body and extension of forelimbs) as early as 2-3 minutes following injection and reaching a peak between 5 and 15 min following injection. This time window was therefore used to evaluate the number of abdominal stretches (writhes counted over 10 min observation) in mice administered with either saline or compound XIV at 0.5, 1 or 5 mg/kg eq. NT.

[4] = system: NMRI mice with yeast-induced hyperthermia; test: Antipyretic effect in yeast-induced hyperthermia in NMRI mice; format: in vivo, mouse
Experimental: In addition to eliciting a strong hypothermic effect when injected intravenously in naïve mice, we assessed the antipyretic effect of activated NT drugs of the invention in mice with yeast-induced hyperthermia. Briefly, rectal temperature of male NMRI mice was first measured 14 hours before the test using a rectal probe (Baseline 1, two independent measurements at a minimum of 5 min interval). Mice were then injected subcutaneously with either a yeast suspension (512 mg/kg), to induce a hyperthermic response, or hydroxypropylmethylcellulose (HPMC) in saline 0.9%. Fourteen hours later, rectal temperature of the mice was measured again (Baseline 2, two independent measurements at a minimum of 5 min interval) in order to assess the effect of yeast or HPMC injection on baseline temperature.

Swiss (CD-1) mice [5] = test: Hypothermic response (rectal body temperature) after i.v. bolus in Swiss (CD-1) mice; format: in vivo, mouse
Swiss (CD-1) mice [6] = test: Hypothermic response upon four daily i.v. administrations in Swiss (CD-1) mice; format: in vivo, mouse; conditions: 4 mg/kg eq. NT daily i.v.
Experimental: In order to determine the hypothermic responsiveness of mice upon repeated administrations of activated NT of the invention, Swiss (CD-1) mice were challenged to four daily intravenous (bolus) administrations of compound XIV at 4 mg/kg eq. NT. Rectal body temperature was monitored each day during 3 hours post-injection.

[7] = target: T1, rat neurotensin receptor type 1 (rNTR-1) (Rattus norvegicus, UniProt P20789); test: Competition binding assay with [3H]-neurotensin on rat NTR-1 membranes (HEK293 cells); conditions: read-out: NTR-1 binding affinity Ki, Rat NTR-1
T1 construct: host or cells: HEK293 cells (membrane homogenates)
T1 sequence (P20789 whole entry): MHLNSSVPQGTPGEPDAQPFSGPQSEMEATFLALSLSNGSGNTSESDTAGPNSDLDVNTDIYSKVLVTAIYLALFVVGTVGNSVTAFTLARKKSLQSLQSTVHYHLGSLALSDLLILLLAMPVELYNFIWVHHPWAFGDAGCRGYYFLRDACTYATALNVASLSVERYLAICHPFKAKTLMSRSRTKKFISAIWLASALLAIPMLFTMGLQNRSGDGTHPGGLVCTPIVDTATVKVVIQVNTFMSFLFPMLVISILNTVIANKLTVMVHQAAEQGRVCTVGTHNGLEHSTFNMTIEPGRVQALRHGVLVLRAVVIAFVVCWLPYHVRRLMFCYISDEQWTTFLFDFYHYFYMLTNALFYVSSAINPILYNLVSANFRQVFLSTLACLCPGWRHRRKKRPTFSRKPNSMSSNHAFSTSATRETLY

## CCC(=O)N[C@@H]1CSSC[C@@H](C(=O)NCCOCCOCCOCCOCCOCCOCCC(=O)N[C@@H](CCCNC(=N)N)C(=O)N[C@@H](CCCNC(=N)N)C(=O)N2CCC[C@H]2C(=O)N[C@@H](Cc2ccc(O)cc2)C(=O)N[C@H](C(=O)N[C@@H](CC(C)C)C(=O)O)[C@@H](C)CC)NC(=O)CN(C)C(=O)[C@H](CCCNC(=N)N)NC(=O)[C@H](CC(C)C)NC(=O)[C@H](CCCNC(=N)N)NC(=O)[C@@H]2CCCCN2C(=O)[C@H](CCSC)NC1=O [Compound XIV, Pr-cMPipRLRSarC-PEG6-RRPYIL-OH]
[1]
  mean decrease in body temperature compared to SE animals (first value): −2.5 °C
[2]
  half-life: 96 min
[3]
  transfer coefficient Kin in the eye: 0.00033 mL/s/g
BBB (brain)
  transfer coefficient Kin in the brain: 0.000365 mL/s/g
mice; 0.5 mg/kg eq. NT i.v.
  antinociceptive effect on writhe count: no effect
mice; 1 mg/kg eq. NT i.v.
  reduction of the writhe count: 50%
mice; 5 mg/kg eq. NT i.v.
  reduction of the writhe count: 64%
[4]; 6 mg/kg eq. NT i.v.
  further decrease of body temperature: 4.7 °C
[4]; as of 2 mg/kg eq. NT i.v., 15 min post-injection
  maximal antipyretic effect compared to Baseline 2 or saline: −2.2 °C
Swiss (CD-1) mice [5]; 10 mg/kg eq. NT i.v. bolus, 60 min post-injection
  Maximal decrease in body temperature: −6.7 °C
Swiss (CD-1) mice [5]; 20 mg/kg eq. NT, mice
  hypothermic response at 20 mg/kg eq. NT versus 10 mg/kg eq. NT: No further decrease in body temperature
Swiss (CD-1) mice [5]; i.v. bolus
  Minimal Effective Dose (MED), hypothermic effect: about 0.1 mg/kg eq. NT
Swiss (CD-1) mice [5]; i.v. bolus, dose-response
  ED50, hypothermic effect: 1.53 mg/kg eq. NT
Swiss (CD-1) mice [6]; day 1, 45 min post-injection
  maximal decrease in body temperature, day 1: −5.5 °C
Swiss (CD-1) mice [6]; day 2 to day 4, 30 min post-injection
  mean decrease in body temperature, day 2 to day 4: −3 °C
[7]
  Ki: 1.06 ± 0.47 nM
